Entries after “also recorded” stand apart in the source; their conditions may differ. Where two headings read alike, the source gives them in different places.
Experiment: Phase 1b MAD plasma pharmacokinetics, non-compartmental analysis
Format: in vivo, human
Source text: Methods: All study procedures were approved by the IRB, and informed consent was obtained. Three cohorts of volunteers 45-80 years of age with well-controlled comorbidities (NOAD) and one cohort of AD patients diagnosed with cognitive impairment consistent with prodromal AD per International Working Group criteria or mild AD per National Institute on Aging—Alzheimer's Association criteria (n=6 active, 2 placebo per cohort) were enrolled. Participants were admitted to the study site for the duration of the dosing and returned 7-12 days after the last dose for a safety visit. Participants received NTRX-07 (10, 30, or 90 mg) or a placebo in a double-blinded randomization orally once daily for seven days. Subjects were assessed for changes in vital signs, including maneuvers to induce lightheadedness, electrocardiograms, 24-hour electroencephalograms (EEG), and safety laboratory studies. The second cohort returned and received a single repeat dose after a standard high-fat meal. The AD cohort also underwent cognitive testing and had blood samples for biomarkers drawn. Subjects had PK sampling done after the first and final dose of the study drug. An independent safety review committee conducted a blinded safety review of adverse events and plasma levels between each cohort.
All subjects had PK sampling done after the first and final dose of the study drug.
Raw bioanalytical data were received from Nuvisan following analysis of plasma samples from each of four cohorts. PK parameters were calculated by noncompartmental analysis using standard equations. Specifically, area under the plasma concentration versus time curve (AUC) was calculated using the trapezoid rule. Maximal plasma concentration (Cmax) and time of maximal plasma concentration (Tmax) were taken directly from the data. Clearance divided by bioavailability (Cl/F) was calculated as the dose divided by the AUC. Apparent volume of distribution over bioavailability (Vd/F) was calculated as dose divided by Cmax.
With oral administration of the dose every 24 hours for 7 days, blood samples were taken over a 24-hour interval on Days 1 and 7 and before and after dosing on Day 3.
Raw bioanalytical data were received from Nuvisan on Oct. 27, 2022. […] Specifically, area under the plasma concentration versus time curve (AUC) was calculated using the trapezoid rule. Maximal plasma concentration (Cmax) and time of maximal plasma concentration (Tmax) were taken directly from the data. Clearance divided by bioavailability (Cl/F) was calculated as the dose divided by the AUC. Apparent volume of distribution over bioavailability (Vd/F) was calculated as dose divided by Cmax.
Raw bioanalytical data were received from Nuvisan on Nov. 24, 2022. […] Specifically, area under the plasma concentration versus time curve (AUC) was calculated using the trapezoid rule. Maximal plasma concentration (Cmax) and time of maximal plasma concentration (Tmax) were taken directly from the data. Clearance divided by bioavailability (Cl/F) was calculated as the dose divided by the AUC. Apparent volume of distribution over bioavailability (Vd/F) was calculated as dose divided by Cmax.
Raw bioanalytical data were received from Nuvisan on Dec. 19, 2022. […] Specifically, area under the plasma concentration versus time curve (AUC) was calculated using the trapezoid rule. Maximal plasma concentration (Cmax) and time of maximal plasma concentration (Tmax) were taken directly from the data. Clearance divided by bioavailability (Cl/F) was calculated as the dose divided by the AUC. Apparent volume of distribution over bioavailability (Vd/F) was calculated as dose divided by Cmax.
Raw bioanalytical data were received from Nuvisan on Jun. 30, 2023. […] Specifically, area under the plasma concentration versus time curve (AUC) was calculated using the trapezoid rule. Maximal plasma concentration (Cmax) and time of maximal plasma concentration (Tmax) were taken directly from the data. […]

Work on `CC1(Cc2ccccc2)COc2cc(C(=O)N3CCCCC3)ccc21` (stereo not drawn) [NTRX-07, 3-benzyl-3-methyl-2,3-dihydrobenzofuran-6-carboxylic acid-piperidine amide] yielded a Cmax (human, plasma, po, 90 mg, Cohort D AD patients, 90 mg QD oral, Day 7, mean ± SD, read-out: Average of Cmax) of 240 ± 38 ng/mL, a Tmax (human, plasma, po, 90 mg, Cohort D AD patients, 90 mg QD oral, Day 7, mean ± SD, read-out: Average of Tmax) of 1.1 ± 0.5 h and a Vd/F (human, plasma, po, 90 mg, Cohort D AD patients, 90 mg QD oral, Day 7, mean ± SD, read-out: Average of Vd/F) of 384 ± 69 L. For the same compound, the AUC over 24 h (AUC0-24) (human, plasma, po, 90 mg, Table 14: Cohort C, 90 mg QD oral, Day 1, mean ± S.D.) was 1270 ± 509 ng·h/mL, the Cmax (human, plasma, po, 90 mg, Table 14: Cohort C, 90 mg QD oral, Day 1, mean ± S.D., read-out: Cmax) was 400 ± 202 ng/mL and the Tmax (human, plasma, po, 90 mg, Table 14: Cohort C, 90 mg QD oral, Day 1, mean ± S.D., read-out: Tmax) was 2.3 ± 2.2 h. It also gave a Vd/F (human, plasma, po, 90 mg, Table 14: Cohort C, 90 mg QD oral, Day 1, mean ± S.D., read-out: Vd/F) of 337 ± 316 L, an AUC over 24 h (AUC0-24) (human, plasma, po, 90 mg, Table 15: Cohort C, 90 mg QD oral, Day 7, mean ± S.D.) of 741 ± 357 ng·h/mL and a Cmax (human, plasma, po, 90 mg, Table 15: Cohort C, 90 mg QD oral, Day 7, mean ± S.D., read-out: Cmax) of 189 ± 95 ng/mL. It also gave a Tmax (human, plasma, po, 90 mg, Table 15: Cohort C, 90 mg QD oral, Day 7, mean ± S.D., read-out: Tmax) of 1.3 ± 1 h, a Vd/F (human, plasma, po, 90 mg, Table 15: Cohort C, 90 mg QD oral, Day 7, mean ± S.D., read-out: Vd/F) of 568 ± 231 L and an AUC(0-t) (human, plasma, po, 90 mg, Table 16: Cohort D (AD), 90 mg QD oral, Day 1, mean ± S.D., read-out: AUClast) of 1560 ± 605 ng·h/mL. For the same compound, the Cmax (human, plasma, po, 90 mg, Table 16: Cohort D (AD), 90 mg QD oral, Day 1, mean ± S.D., read-out: Cmax) was 478 ± 154 ng/mL, the Tmax (human, plasma, po, 90 mg, Table 16: Cohort D (AD), 90 mg QD oral, Day 1, mean ± S.D., read-out: Tmax) was 1.1 ± 0.6 h and the Vd/F (human, plasma, po, 90 mg, Table 16: Cohort D (AD), 90 mg QD oral, Day 1, mean ± S.D., read-out: Vd/F) was 211 ± 90 L. It also gave an AUC over 24 h (AUC0-24) (human, plasma, po, 90 mg, Table 17: Cohort D (AD), 90 mg QD oral, Day 7, individual subjects) of 623 ng·h/mL, a Cmax (human, plasma, po, 90 mg, Table 17: Cohort D (AD), 90 mg QD oral, Day 7, individual subjects, read-out: Cmax) of 286 ng/mL and a Vd/F (human, plasma, po, 90 mg, Table 17: Cohort D (AD), 90 mg QD oral, Day 7, individual subjects, read-out: Vd/F) of 315 L. It also gave an AUC over 24 h (AUC0-24) (human, plasma, po, 90 mg, Table 17: Cohort D (AD), 90 mg QD oral, Day 7, mean ± S.D.) of 806 ± 196 ng·h/mL, a Cmax (human, plasma, po, 90 mg, Table 17: Cohort D (AD), 90 mg QD oral, Day 7, mean ± S.D., read-out: Cmax) of 240 ± 38 ng/mL and a Tmax (human, plasma, po, 90 mg, Table 17: Cohort D (AD), 90 mg QD oral, Day 7, mean ± S.D., read-out: Tmax) of 1.1 ± 0.5 h. For the same compound, the Vd/F (human, plasma, po, 90 mg, Table 17: Cohort D (AD), 90 mg QD oral, Day 7, mean ± S.D., read-out: Vd/F) was 384 ± 69 L, the AUC over 24 h (AUC0-24) (human, plasma, po, 120 mg, Table 24 (interim): Cohort B, 120 mg SDD (30 mg NTRX-07) QD oral, Day 1, mean ± S.D.) was 323 ± 213 ng·h/mL and the Cmax (human, plasma, po, 120 mg, Table 24 (interim): Cohort B, 120 mg SDD (30 mg NTRX-07) QD oral, Day 1, mean ± S.D., read-out: Cmax) was 109 ± 57.8 ng/mL. The Tmax (human, plasma, po, 120 mg, Table 24 (interim): Cohort B, 120 mg SDD (30 mg NTRX-07) QD oral, Day 1, mean ± S.D., read-out: Tmax) was 0.9 ± 0.6 h, the Vd/F (human, plasma, po, 120 mg, Table 24 (interim): Cohort B, 120 mg SDD (30 mg NTRX-07) QD oral, Day 1, mean ± S.D., read-out: Vd/F) was 1340 ± 750 L and the Tmax (human, plasma, po, 120 mg, Table 25 (interim): Cohort B, 120 mg SDD (30 mg NTRX-07) QD oral, Day 7, individual subjects, read-out: Tmax) was 0.5 h. For the same compound, the AUC over 24 h (AUC0-24) (human, plasma, po, 120 mg, Table 25 (interim): Cohort B, 120 mg SDD (30 mg NTRX-07) QD oral, Day 7, mean ± S.D.) was 214 ± 191 ng·h/mL, the Cmax (human, plasma, po, 120 mg, Table 25 (interim): Cohort B, 120 mg SDD (30 mg NTRX-07) QD oral, Day 7, mean ± S.D., read-out: Cmax) was 120 ± 79.2 ng/mL and the Tmax (human, plasma, po, 120 mg, Table 25 (interim): Cohort B, 120 mg SDD (30 mg NTRX-07) QD oral, Day 7, mean ± S.D., read-out: Tmax) was 0.5 h. For the same compound, the Vd/F (human, plasma, po, 120 mg, Table 25 (interim): Cohort B, 120 mg SDD (30 mg NTRX-07) QD oral, Day 7, mean ± S.D., read-out: Vd/F) was 1240 ± 936 L, the AUC over 24 h (AUC0-24) (human, plasma, po, 360 mg SDD, Table 29 (interim): Cohort C, 360 mg SDD (90 mg NTRX-07) QD oral, Day 1, mean ± S.D.) was 1290 ± 541 ng·h/mL and the Cmax (human, plasma, po, 360 mg SDD, Table 29 (interim): Cohort C, 360 mg SDD (90 mg NTRX-07) QD oral, Day 1, mean ± S.D., read-out: Cmax) was 439 ± 236 ng/mL. It also gave a Tmax (human, plasma, po, 360 mg SDD, Table 29 (interim): Cohort C, 360 mg SDD (90 mg NTRX-07) QD oral, Day 1, mean ± S.D., read-out: Tmax) of 2.3 ± 2.8 h, a Vd/F (human, plasma, po, 360 mg SDD, Table 29 (interim): Cohort C, 360 mg SDD (90 mg NTRX-07) QD oral, Day 1, mean ± S.D., read-out: Vd/F) of 1300 ± 1290 L and an AUC over 24 h (AUC0-24) (human, plasma, po, 360 mg SDD, Table 30 (interim): Cohort C, 360 mg SDD (90 mg NTRX-07) QD oral, Day 7, mean ± S.D.) of 747 ± 349 ng·h/mL. For the same compound, the Cmax (human, plasma, po, 360 mg SDD, Table 30 (interim): Cohort C, 360 mg SDD (90 mg NTRX-07) QD oral, Day 7, mean ± S.D., read-out: Cmax) was 189 ± 95 ng/mL, the Tmax (human, plasma, po, 360 mg SDD, Table 30 (interim): Cohort C, 360 mg SDD (90 mg NTRX-07) QD oral, Day 7, mean ± S.D., read-out: Tmax) was 1.3 ± 1 h and the Vd/F (human, plasma, po, 360 mg SDD, Table 30 (interim): Cohort C, 360 mg SDD (90 mg NTRX-07) QD oral, Day 7, mean ± S.D., read-out: Vd/F) was 2270 ± 923 L. The AUC over 24 h (AUC0-24) (human, plasma, po, 360 mg SDD, Table 34 (interim): Cohort D (AD), 360 mg SDD (90 mg NTRX-07) QD oral, Day 1, mean ± S.D.) was 1560 ± 329 ng·h/mL, the Cmax (human, plasma, po, 360 mg SDD, Table 34 (interim): Cohort D (AD), 360 mg SDD (90 mg NTRX-07) QD oral, Day 1, mean ± S.D., read-out: Cmax) was 478 ± 154 ng/mL and the Tmax (human, plasma, po, 360 mg SDD, Table 34 (interim): Cohort D (AD), 360 mg SDD (90 mg NTRX-07) QD oral, Day 1, mean ± S.D., read-out: Tmax) was 1.1 ± 0.6 h. It also gave a Vd/F (human, plasma, po, 360 mg SDD, Table 34 (interim): Cohort D (AD), 360 mg SDD (90 mg NTRX-07) QD oral, Day 1, mean ± S.D., read-out: Vd/F) of 845 ± 360 L, an AUC over 24 h (AUC0-24) (human, plasma, po, 360 mg SDD, Table 35 (interim): Cohort D (AD), 360 mg SDD (90 mg NTRX-07) QD oral, Day 7, individual subjects) of 1010 ng·h/mL and a Cmax (human, plasma, po, 360 mg SDD, Table 35 (interim): Cohort D (AD), 360 mg SDD (90 mg NTRX-07) QD oral, Day 7, individual subjects, read-out: Cmax) of 286 ng/mL. For the same compound, the Vd/F (human, plasma, po, 360 mg SDD, Table 35 (interim): Cohort D (AD), 360 mg SDD (90 mg NTRX-07) QD oral, Day 7, individual subjects, read-out: Vd/F) was 1260 L, the AUC over 24 h (AUC0-24) (human, plasma, po, 360 mg SDD, Table 35 (interim): Cohort D (AD), 360 mg SDD (90 mg NTRX-07) QD oral, Day 7, mean ± S.D.) was 1430 ± 329 ng·h/mL and the Cmax (human, plasma, po, 360 mg SDD, Table 35 (interim): Cohort D (AD), 360 mg SDD (90 mg NTRX-07) QD oral, Day 7, mean ± S.D., read-out: Cmax) was 240 ± 38 ng/mL. The Tmax (human, plasma, po, 360 mg SDD, Table 35 (interim): Cohort D (AD), 360 mg SDD (90 mg NTRX-07) QD oral, Day 7, mean ± S.D., read-out: Tmax) was 1.1 ± 0.5 h, the Vd/F (human, plasma, po, 360 mg SDD, Table 35 (interim): Cohort D (AD), 360 mg SDD (90 mg NTRX-07) QD oral, Day 7, mean ± S.D., read-out: Vd/F) was 1540 ± 278 L and the “Plasma levels / exposure Day 7 vs Day 1” value (repeat QD dosing, 90 mg cohorts) was “A decrease of levels at Day 7 was observed; also recorded: exposure is decreasing rather than increasing over time”.

From patent US20250082624A1, “METHODS OF TREATING COGNITIVE IMPAIRMENT” (NeuroTherapia, Inc., priority 2023, published 2025)
